# Laboratory results: paper PMC12040169 (PLOS Biology, 2025)
# Test: in vitro
# Settings: human, hela cells, % viability
row,SMILES,"viability at 28.5 h, 10 µM"
1,CS(=O)(=O)N1CC2(CCN(Cc3cc(=O)[nH]c(=O)[nH]3)CC2)c2ccccc21 [CBK126679],103%
2,COc1ccc(OCCN2CCC3(CC2)CN(S(C)(=O)=O)c2ccccc23)cc1 [CBK126681],95.5%
3,CS(=O)(=O)N1CC2(CCN(CCCCC3NC(=O)NC3=O)CC2)c2ccccc21 (stereo not drawn) [CBK126684],97.1%
4,CN(C)C(=O)CN1CCC2(CC1)CN(S(C)(=O)=O)c1ccccc12 [CBK126686],97.7%
5,Cc1nc(CN2CCC3(CC2)CN(S(C)(=O)=O)c2ccccc23)cs1 [CBK126687],96.3%
6,CCNC(=O)N1CC2(CCN(Cc3ccc(OC(F)(F)F)cc3)CC2)c2ccccc21 [CBK126688],115%
7,CCNC(=O)N1CC2(CCN(Cc3cc(OC)c(OC)c(OC)c3)CC2)c2ccccc21 [CBK126689],96.5%
8,CCNC(=O)N1CC2(CCN(Cc3ccc(Cl)c(Cl)c3)CC2)c2ccccc21 [CBK126690],95.4%
9,CCNC(=O)N1CC2(CCN(Cc3ccc4ccccc4c3)CC2)c2ccccc21 [CBK126696],90%
10,CCNC(=O)N1CC2(CCN(CC(N)=O)CC2)c2ccccc21 [CBK126701],95.3%
11,CCNC(=O)N1CC2(CCN(CCCCC3NC(=O)NC3=O)CC2)c2ccccc21 (stereo not drawn) [CBK126707],92.2%
12,CCNC(=O)N1CC2(CCN(CCSC)CC2)c2ccccc21 [CBK126709],101%
13,CCNC(=O)N1CC2(CCN(Cc3csc(C)n3)CC2)c2ccccc21 [CBK126712],103%
14,CC(C)C(=O)N1CC2(CCN(Cc3ccc(Cl)c(Cl)c3)CC2)c2ccccc21 [CBK126715],94.7%
15,CC(C)C(=O)N1CC2(CCN(Cc3nc4ccccc4[nH]3)CC2)c2ccccc21 [CBK126719],110%
16,CC(C)C(=O)N1CC2(CCN(Cc3ncc[nH]3)CC2)c2ccccc21 [CBK126731],109%
17,CSc1cc(-c2ccc(Cl)cc2)c(C(=O)O)s1 [CBK126740],80.3%
18,Cc1ccc(C(=O)O)c(NC(=O)c2ccccc2F)c1 [CBK126744],98.9%
19,CN1CCN(C(=O)c2ccc(-c3cncc(-c4ccc(O)cc4)n3)c(F)c2)CC1 [CBK126752],100%
20,CCC1(CC)OC(N[C@@H](CO)c2ccccc2)=NC1=O [CBK126756],92.8%
21,OCCN1CC2(CCN(Cc3ncc[nH]3)CC2)c2ccccc21 [CBK126763],102%
22,OCCN1CC2(CCN(CCN3CCOCC3)CC2)c2ccccc21 [CBK126766],91.4%

row,SMILES,"viability at 28.5 h, 10 µM"
1,CSCCN1CCC2(CC1)CN(CCO)c1ccccc12 [CBK126771],94.6%
2,NC(=O)CN1CC2(CCN(Cc3cccc(C(F)(F)F)c3)CC2)c2ccccc21 [CBK126776],93.1%
3,NC(=O)CN1CC2(CCN(CCc3c[nH]c4ccccc34)CC2)c2ccccc21 [CBK126784],93.3%
4,NC(=O)CN1CCC2(CC1)CN(CC(N)=O)c1ccccc12 [CBK126789],100%
5,CCN1CCC2(CC1)CN(CC(N)=O)c1ccccc12 [CBK126798],80.4%
6,CC1(C)Cc2c(sc(NC(=O)c3ccccc3Cl)c2C(=O)O)CO1 [CBK126806],99.4%
7,COc1ccc(Nc2nc(-c3cccnc3)cs2)c(OC)c1 [CBK126814],92.6%
8,O=S(=O)(c1ccc(-c2cncc(-c3ccc(O)cc3)n2)cc1F)N1CCOCC1 [CBK126903],94.3%
9,Cc1ccc2nc(C)cc(NCCO)c2c1 [CBK126909],104%
10,CCCCc1c(C)nc2ccc(Br)cc2c1SCCC(=O)O [CBK126915],93.4%
11,O=C(O)CSc1ccc(Br)c2cccc(C(=O)O)c12 [CBK126919],99.2%
12,O=C(O)CCNc1ncnc2ccccc12 [CBK126920],99.4%
13,CN(C)CCCNC(=O)C1CCN(c2cncc(-c3ccc(O)cc3)n2)CC1 [CBK126929T],94.1%
14,O=C(N1CCOCC1)N1CCN(c2cncc(-c3ccc(O)cc3)n2)CC1 [CBK126946T],96.6%
15,CC(=O)N1CCN(c2cncc(-c3ccc(O)cc3)n2)CC1 [CBK126948T],88.9%
16,Nc1cccc(-c2ccc(OC3CCNCC3)cc2)c1 [CBK126959T],83.9%
17,CC(C)n1c(SCC(=O)Nc2nc(C(C)(C)C)cs2)nc2c1c(=O)n(C)c(=O)n2C [CBK127417],104%
18,O=C(c1ccc(OC(F)(F)F)cc1)N1CCC2(CCN(C(=O)c3cc(F)c(F)cc3F)C2)C1 (stereo not drawn) [CBK131384],108%
19,NS(=O)(=O)c1ccc(C(=O)N2CCC3(CCN(C(=O)c4cc(F)c(F)cc4F)C3)C2)cc1 (stereo not drawn) [CBK131385],104%
20,O=C(c1cc(F)c(F)cc1F)N1CCC2(CCN(C(=O)C3COc4ccccc4O3)C2)C1 (stereo not drawn) [CBK131390],107%
21,O=C(c1ccc2ncccc2c1)N1CCC2(CCN(C(=O)c3cc(F)c(F)cc3F)C2)C1 (stereo not drawn) [CBK131391],91%
22,O=C(c1ccc2c(c1)OCCO2)N1CCC2(CCN(C(=O)c3cc(F)c(F)cc3F)C2)C1 (stereo not drawn) [CBK131410],98.2%

# Same assay, conditions: human, hela cells, % viability, bulk resorufin, single well
row,SMILES,"viability at 28.5 h, 10 µM"
1,O=C1NC(=O)C(=Cc2cccc(OCCOc3ccc([N+](=O)[O-])cc3)c2)C(=O)N1 [CBK126857],95.7%
